Values of other authors as cited in US20120288450A1, “Chewing gum formula for enhancing psycho-spirituality” (priority 2009, published 2012).
“Also recorded” adds a separate entry of the source.

What was measured:
[1] = molecular target: anandamide (CB1) receptor (Homo sapiens, UniProt P21554)
[2] = in vivo
[3] = moisture, light, and radiation
[4] = ingested orally
[5] = molecular target: T1, Monoamine Oxidase Type-A (MAO-A) (Homo sapiens, UniProt P21397)
T1 sequence (P21397 1-527): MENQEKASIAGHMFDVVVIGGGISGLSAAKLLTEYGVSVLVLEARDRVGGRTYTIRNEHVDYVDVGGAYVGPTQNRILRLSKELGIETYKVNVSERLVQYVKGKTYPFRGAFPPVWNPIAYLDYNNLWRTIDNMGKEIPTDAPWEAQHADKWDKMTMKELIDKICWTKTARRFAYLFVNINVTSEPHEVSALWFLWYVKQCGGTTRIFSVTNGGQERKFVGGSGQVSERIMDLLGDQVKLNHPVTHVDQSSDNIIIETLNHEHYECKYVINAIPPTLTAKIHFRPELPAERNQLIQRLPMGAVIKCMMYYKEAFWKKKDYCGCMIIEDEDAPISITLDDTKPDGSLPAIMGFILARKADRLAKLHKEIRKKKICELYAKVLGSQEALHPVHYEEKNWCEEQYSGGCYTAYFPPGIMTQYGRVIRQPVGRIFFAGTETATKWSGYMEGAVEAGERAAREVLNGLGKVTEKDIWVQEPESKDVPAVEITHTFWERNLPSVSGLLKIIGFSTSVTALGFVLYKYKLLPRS

[6] = mice
[7] = system: various different bioreceptor sites; settings: sites commonly effected by most other psychoactive compounds
[8] = system: MK-801 receptor sites
[9] = in vivo; remark: listed apart in the source
[10] = in vivo; remark: listed apart in the source
[11] = in vivo; remark: listed apart in the source
[12] = system: dopamine in the nucleus accumbens; settings: in vivo
[13] = molecular target: T2, Monoamine Oxidase Type-B (MAO-B) (Homo sapiens, UniProt P27338)
T2 sequence (P27338 1-520): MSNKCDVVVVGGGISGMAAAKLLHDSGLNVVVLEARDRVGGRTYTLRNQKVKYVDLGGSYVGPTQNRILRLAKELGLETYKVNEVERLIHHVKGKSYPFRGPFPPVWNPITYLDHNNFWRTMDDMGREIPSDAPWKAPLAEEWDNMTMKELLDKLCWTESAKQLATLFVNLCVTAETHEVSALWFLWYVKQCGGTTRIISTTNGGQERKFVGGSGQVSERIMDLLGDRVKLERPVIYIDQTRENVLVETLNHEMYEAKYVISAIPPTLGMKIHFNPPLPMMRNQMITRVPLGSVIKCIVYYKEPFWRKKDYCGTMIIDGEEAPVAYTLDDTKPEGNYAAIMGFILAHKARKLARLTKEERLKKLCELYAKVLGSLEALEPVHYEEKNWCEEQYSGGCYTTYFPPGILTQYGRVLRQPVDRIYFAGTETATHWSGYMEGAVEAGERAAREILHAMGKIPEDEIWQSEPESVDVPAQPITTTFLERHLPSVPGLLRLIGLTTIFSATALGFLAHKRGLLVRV

Chain of anandamide (CB1) receptor (P21554 whole entry, species assumed): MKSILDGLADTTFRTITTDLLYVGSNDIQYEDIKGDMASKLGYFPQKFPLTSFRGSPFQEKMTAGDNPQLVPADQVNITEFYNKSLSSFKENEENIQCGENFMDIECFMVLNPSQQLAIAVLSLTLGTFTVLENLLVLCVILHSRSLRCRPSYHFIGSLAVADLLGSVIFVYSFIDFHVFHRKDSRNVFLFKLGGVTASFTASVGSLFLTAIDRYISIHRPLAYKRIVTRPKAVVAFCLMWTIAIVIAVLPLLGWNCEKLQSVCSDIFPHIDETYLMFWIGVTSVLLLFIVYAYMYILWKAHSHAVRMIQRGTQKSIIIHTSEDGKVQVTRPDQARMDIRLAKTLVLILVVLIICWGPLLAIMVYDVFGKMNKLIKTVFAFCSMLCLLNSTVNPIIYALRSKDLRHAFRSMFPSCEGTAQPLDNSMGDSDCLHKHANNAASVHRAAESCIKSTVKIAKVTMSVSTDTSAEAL

Row | SMILES | active binding to the anandamide (CB1) receptor site [1] | minimal dose [2] [mg] | stability of potency [3] | entry into the blood stream [4] | inhibition of MAO-A enzyme [5] | anxiolytic and anti-depressant findings [6] | competitive inhibition of reference target compounds at bioreceptor sites [7] | active binding to the MK-801 receptor site [8] | toxicity [9] | effect on cocaine-produced drug seeking [10] | habit forming / addictiveness [11] | release of dopamine in the nucleus accumbens [12] | inhibition of MAO-B enzyme [13] | solubility in acetone | solubility in water and saliva (when still embedded in the leaf) | psychoactive effect / activity [2]
1 | COC(=O)[C@@H]1C[C@H](OC(C)=O)C(=O)[C@H]2[C@@]1(C)CC[C@H]1C(=O)O[C@H](c3ccoc3)C[C@]21C [Salvinorin A] | nor has it shown any active binding | 0.2 | diminish the potency | doesn't efficiently enter the blood stream | does not inhibit | anxiolytic and anti-depressant | has not been shown to incur any significant, competitive inhibition | nor has it shown any active binding | almost entirely non-toxic; also recorded: ultra low toxicity | successful in decreasing the effect of cocaine-produced drug seeking | non-habit forming and thus non-addictive | does not induce the release of dopamine | does not inhibit | highly soluble | substantially water- and saliva-insoluble | 
2 | COC(=O)[C@@H]1C[C@H](O)C(=O)[C@H]2[C@@]1(C)CC[C@H]1C(=O)O[C@H](c3ccoc3)C[C@]21C [Salvinorin “B”] |  |  |  |  |  |  |  |  |  |  |  |  |  |  |  | not known to induce psychoactive effect
